Assay results taken from patent publication US8133849B2, “Herbicidal compounds” (Syngenta Limited, priority 2007, dated 2012).

Key:
Assay in all cases: Example B2 herbicidal action, post-emergence, pots in glasshouse, damage score 0-10
Assay type in all cases: in vivo
Details in all cases: application post-emergence, rate 1000 g/ha, evaluated after 13 days
Amaranthus retroflexus = system: Amaranthus retroflexus
Outline: (§1)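 Evaluation took place 13 days post-spray. Treatment used an acetone/water (50:50), 0.5% Tween 20 formulation applied to 8-day-old potted plants, held at 24/16 °C with 14 h light, 65% humidity and twice-daily watering.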

Ipomea hederaceae = system: Ipomea hederaceae
Outline: as §1

Echinochloa crus-galli = system: Echinochloa crus-galli
Outline: as §1

Setaria faberi = system: Setaria faberi
Outline: as §1

Solanum nigrum = system: Solanum nigrum
Outline: as §1

Structure (SMILES) | AMARE damage score (10=total damage to plant; 0=no damage to plant) (Amaranthus retroflexus) | IPOHE damage score (10=total damage to plant; 0=no damage to plant) (Ipomea hederaceae) | ECHCG damage score (10=total damage to plant; 0=no damage to plant) (Echinochloa crus-galli) | SETFA damage score (10=total damage to plant; 0=no damage to plant) (Setaria faberi) | SOLNI damage score (10=total damage to plant; 0=no damage to plant) (Solanum nigrum)
CC(C)(C)C(=O)OC1=C(c2ccc(-c3ccc(Cl)cc3F)cc2Cl)S(=O)(=O)N(CC(F)F)c2nccnc21 [Compound C142] | 4 | 3 | 1 | 0 | 6
C#CCN1c2nccnc2C(OC(=O)SCC)=C(c2c(Cl)ccc(Cl)c2C(F)(F)F)S1(=O)=O [Compound C85] | 7 | 9 | 7 | 6 | 10
CCN1c2nccnc2C(O)=C(c2ccc(Cl)cc2C(F)(F)F)S1(=O)=O [Compound D10] | 9 | 9 | 4 | 2 | 10
CCN1c2nccnc2C(O)=C(c2c(F)cccc2C(F)(F)F)S1(=O)=O [Compound D21] | 8 | 9 | 6 | 6 | 9
CC(C)C(=O)OC1=C(c2cccc(Cl)c2Cl)S(=O)(=O)N(CC(F)F)c2nccnc21 [Compound C102] | 1 | 6 | 0 | 0 | 7
CCN1c2nccnc2C(OC(=O)C(C)(C)C)=C(c2ccccc2C(F)(F)F)S1(=O)=O [Compound C64] | 4 | 6 | 5 | 3 | 5
C#CCN1c2nccnc2C(OC(=O)C(C)(C)C)=C(c2c(Cl)ccc(Cl)c2C(F)(F)F)S1(=O)=O [Compound C86] | 5 | 4 | 5 | 2 | 6
CC(C)C(=O)OC1=C(c2c(Br)cccc2Br)S(=O)(=O)N(CC(F)F)c2nccnc21 [Compound C49] | 9 | 9 | 8 | 6 | 9
CCN1c2nccnc2C(OC(=O)C(C)(C)C)=C(c2cccc(C(F)(F)F)c2Cl)S1(=O)=O [Compound C76] | 0 | 0 | 0 | 0 | 3
CC(C)(C)C(=O)OC1=C(c2cc(C(F)(F)F)ccc2C(F)(F)F)S(=O)(=O)N(CC(F)F)c2nccnc21 [Compound C44] | 10 | 10 | 9 | 6 | 10
CCN1c2nccnc2C(OC(=O)C(C)C)=C(c2cc(C(F)(F)F)ccc2Br)S1(=O)=O [Compound C70] | 7 | 10 | 7 | 1 | 8
O=S1(=O)C(c2cc(C(F)(F)F)ccc2Cl)=C(O)c2c(ncc[n+]2[O-])N1CC(F)F [Compound E1, 3-(2-chloro-5-trifluoromethyl-phenyl)-1-(2,2-difluoro-ethyl)-2,2-dioxo-5-oxy-1,2-dihydro-2-λ-6-thia-1,5,8-triaza-naphthalen-4-ol] | 4 | 7 | 3 | 1 | 9
Cc1ccc(C(F)(F)F)c(C2=C(OC(=O)C(C)(C)C)c3nccnc3N(CC(F)F)S2(=O)=O)c1 [Compound C148] | 7 | 8 | 3 | 2 | 9
O=S1(=O)C(c2ccccc2I)=C(O)c2nccnc2N1CC(F)F [Compound D44] | 10 | 10 | 9 | 6 | 10
CCSC(=O)OC1=C(c2cc(F)c(Cl)cc2Cl)S(=O)(=O)N(CC(F)F)c2nccnc21 [Compound C88] | 9 | 9 | 6 | 4 | 9
CS(=O)(=O)OC1=C(c2cc(C(F)(F)F)ccc2Cl)S(=O)(=O)N(CC(F)F)c2nccnc21 [Compound C83, methanesulfonic acid 3-(2-chloro-5-trifluoromethyl-phenyl)-1-(2,2-difluoro-ethyl)-2,2-dioxo-1,2-dihydro-2-λ-6-thia-1,5,8-triaza-naphthalen-4-yl ester] | 9 | 10 | 7 | 1 | 10
CCN1c2nccnc2C(O)=C(c2cccc(Cl)c2Cl)S1(=O)=O [Compound D49] | 4 | 6 | 1 | 1 | 8
CC#CCN1c2nccnc2C(OC(=O)C(C)(C)C)=C(c2c(Cl)ccc(Cl)c2C(F)(F)F)S1(=O)=O [Compound C96] | 0 | 4 | 1 | 0 | 7
C=C(C)CN1c2nccnc2C(OC(=O)C(C)(C)C)=C(c2cccc(Cl)c2Cl)S1(=O)=O [Compound C140] | 0 | 2 | 0 | 0 | 2
CCN1c2nccnc2C(O)=C(c2cc(C(F)(F)F)ccc2Br)S1(=O)=O [Compound D35] | 8 | 10 | 1 | 4 | 9
CCN1c2nccnc2C(O)=C(c2c(C(F)(F)F)cccc2C(F)(F)F)S1(=O)=O [Compound D43] | 7 | 8 | 3 | 4 | 8
